The subject of data set [1] is Mtb. In words: microbe, parasite or virus in culture. It is filed as cell-based, Mycobacterium tuberculosis.
Data set [2] relates to Vero cells.
The subject of data set [3] is Mtb. In words: microbe, parasite or virus in culture. It is filed as cell-based, Mycobacterium tuberculosis. This is another data set of the same source.
Data set [4] relates to Mtb. In words: microbe, parasite or virus in culture. It is filed as cell-based, Mycobacterium tuberculosis. As to conditions: for MIC: Mycobacterium tuberculosis, read-out: MIC (II).

For `O=C(NC(=O)c1ccsc1NC(=O)c1nc2ccccc2s1)OCCF` [Compound 20], the “MIC (I)” value in data set [1] was “A (key: A: <1 μg/mL; B: 1-3 μg/mL; C: >3 μg/mL)”. In addition, in data set [2], the “LC50 (IV)” value is “C (key: A: >50 μg/mL; B: 50-25 μg/mL; C: <25 μg/mL)”.
For the molecule `CCOC(=O)NC(=O)c1ccsc1NC(=O)c1n[nH]c2cc(C)ccc12` [Compound 120], in data set [1], the “MIC (I)” value is listed as “C (key: A: <1 μg/mL; B: 1-3 μg/mL; C: >3 μg/mL)”. Further, the “MIC (III)” value in data set [3] is “C (key: A: <5 μg/mL; B: 5-25 μg/mL; C: >25 μg/mL)”. Further, the “LC50 (IV)” value in data set [2] is recorded as “A (key: A: >50 μg/mL; B: 50-25 μg/mL; C: <25 μg/mL)”.
In the same order, the values of `CCOC(=O)NC(=O)c1ccsc1NC(=O)c1n[nH]c2cc(C#N)ccc12` [Compound 128] are “C (key: A: <1 μg/mL; B: 1-3 μg/mL; C: >3 μg/mL)”, “C (key: A: <5 μg/mL; B: 5-25 μg/mL; C: >25 μg/mL)” and “A (key: A: >50 μg/mL; B: 50-25 μg/mL; C: <25 μg/mL)”.
The matching figures for `CCOC(=O)NC(=O)c1ccsc1NC(=O)c1n[nH]c2cc(Cl)ccc12` [Compound 134]: “C (key: A: <1 μg/mL; B: 1-3 μg/mL; C: >3 μg/mL)”, “C (key: A: <5 μg/mL; B: 5-25 μg/mL; C: >25 μg/mL)” and “A (key: A: >50 μg/mL; B: 50-25 μg/mL; C: <25 μg/mL)”.
In the same order, the values of `CCOC(=O)NC(=O)c1ccsc1NC(=O)c1nc(=O)[nH]c2ccccc12` [Compound 141] are “C (key: A: <1 μg/mL; B: 1-3 μg/mL; C: >3 μg/mL)”, “C (key: A: <5 μg/mL; B: 5-25 μg/mL; C: >25 μg/mL)” and “A (key: A: >50 μg/mL; B: 50-25 μg/mL; C: <25 μg/mL)”.
For the molecule `CCOC(=O)NC(=O)c1ccsc1NC(=O)c1ccncc1` [Compound 170], the MIC in data set [4] is over 3 µg/mL.
Still for that read-out and setting: the value for `CCOC(=O)NC(=O)c1ccsc1NC(=O)Cc1ccccc1` [Compound 171] was over 3 µg/mL; that for `CCOC(=O)NC(=O)c1ccsc1NC(=O)c1cccc(F)c1` [Compound 172] was over 3 µg/mL.
Still for that read-out and setting: the value for `CCOC(=O)NC(=O)c1ccsc1NC(=O)c1c(F)ccc(OC)c1F` [Compound 173] was over 3 µg/mL.
On to `CCOC(=O)NC(=O)c1ccsc1NC(=O)c1ccc(OC)cc1` [Compound 174], for which, in data set [4], the MIC is over 3 µg/mL.
Still for that read-out and setting: the value for `CCOC(=O)NC(=O)c1ccsc1NC(=O)c1c(F)ccc(C)c1F` [Compound 175] was over 3 µg/mL.
Same read-out and setting: the value for `CCOC(=O)NC(=O)c1ccsc1NC(=O)c1c(F)cc(F)cc1F` [Compound 176] was over 3 µg/mL; that for `CCOC(=O)NC(=O)c1ccsc1NC(=O)C1CCCCC1` [Compound 177] was over 3 µg/mL; that for `CCOC(=O)NC(=O)c1ccsc1NC(=O)c1ccnc(C(F)(F)F)c1` [Compound 178] was over 3 µg/mL.
As to `NC(=O)c1cnn(-c2ccccc2)c1NC(=O)c1nc2ccccc2s1` [Compound 179], in data set [4], the MIC is over 3 µg/mL.
For the molecule `CC(=O)Nc1cc(C(=O)Nc2sccc2C(=O)N2CCCCC2)ccn1` [Compound 180], the MIC in data set [4] is over 3 µg/mL.
Regarding `CC(=O)Nc1cc(C(=O)Nc2sccc2C(=O)N2CCOCC2)ccn1` [Compound 181], in data set [4], the MIC is over 3 µg/mL.
For the molecule `CC(=O)Nc1cc(C(=O)Nc2sccc2C(=O)Nc2ccc(Cl)cc2)ccn1` [Compound 182], the MIC in data set [4] is over 3 µg/mL.
Same read-out and setting: for `CNC(=O)c1ccsc1NC(=O)c1ccnc(NC(C)=O)c1` [Compound 183] the value was over 3 µg/mL.
Turning to `CC(=O)Nc1cc(C(=O)Nc2sccc2S(C)(=O)=O)ccn1` [Compound 184], in data set [4], the MIC was over 3 µg/mL.
Consider `CCOC(=O)NC(=O)c1c(NC(=O)c2ccnc(NC(C)=O)c2)sc2c1CCCC2` [Compound 185], for which, in data set [4], the MIC was over 3 µg/mL.
With `CCOC(=O)c1c(NC(=O)c2ccnc(NC(C)=O)c2)sc2c1CCCC2` [Compound 186], in data set [4], the MIC was over 3 µg/mL.
Turning to `CCOC(=O)NC(=O)c1ccccc1NC(=O)c1ccnc(NC(C)=O)c1` [Compound 187], in data set [4], the MIC was over 3 µg/mL.
The same measure, in the same setting: the value for `CCOC(=O)NC(=O)c1c(NC(=O)c2ccnc(NC(C)=O)c2)sc2c1CCN(CC)C2` [Compound 188] was over 3 µg/mL; that for `CCOC(=O)N(C)C(=O)c1ccsc1NC(=O)c1ccnc(NC(C)=O)c1` [Compound 189] was over 3 µg/mL.
Still for that read-out and setting: for `CC(=O)Nc1cc(C(=O)Nc2nnc(C(F)(F)F)s2)ccn1` [Compound 190] the value was over 3 µg/mL.
As to `O=C(Nc1sccc1C(=O)NCc1ccccc1)c1nc2ccccc2s1` [Compound 191], the MIC in data set [4] is over 3 µg/mL.
Still for that read-out and setting: the value for `CCOC(=O)NC(=O)c1ccsc1NC(=O)c1ccnc(NC(=O)C(F)(F)F)c1` [Compound 193] was over 3 µg/mL.
Same read-out and setting: for `CC(=O)Nc1cc(C(=O)Nc2sccc2S(=O)(=O)c2ccccn2)ccn1` [Compound 194] the value was over 3 µg/mL; for `CCOC(=O)NC(=O)c1ccsc1NC(=O)c1cc2ccccc2n1C` [Compound 195], over 3 µg/mL; for `CCOC(=O)NC(=O)c1ccsc1NC(=O)c1cc2cc(Cl)ccc2[nH]1` [Compound 196], over 3 µg/mL.
As to `CCOC(=O)NC(=O)c1ccsc1NC(=O)c1ncccn1` [Compound 197], in data set [4], the MIC is over 3 µg/mL.
Still for that read-out and setting: the value for `COC(=O)Nc1cc(C(=O)Nc2sccc2C(=O)Nc2ccccn2)ccn1` [Compound 198] was over 3 µg/mL.
With `CCOC(=O)NC(=O)c1ccsc1NC(=O)c1ccc2[nH]c(C)nc2c1` [Compound 199], the “MIC (II)” value in data set [4] is recorded as “C (key: A: <1 μg/mL; B: 1-3 μg/mL; C: >3 μg/mL)”.
Consider `COC(=O)NC(=O)c1ccsc1NC(=O)c1ccc(Oc2ccccc2)cc1` [Compound 200], for which, in data set [4], the MIC is over 3 µg/mL.
Same read-out and setting: the value for `CCOC(=O)NC(=O)c1ccsc1NC(=O)c1nn(C)c2ccccc12` [Compound 201] was over 3 µg/mL; that for `CCOC(=O)NC(=O)c1ccsc1NC(=O)c1cn2c(-c3ccc(C(F)(F)F)cc3)cnc2cn1` [Compound 202] was over 3 µg/mL; that for `CCOC(=O)NC(=O)c1ccsc1NC(=O)c1ccc(Oc2ccc(F)cc2)cc1` [Compound 203] was over 3 µg/mL.
The same measure, in the same setting: the value for `CCOC(=O)NC(=O)c1ccsc1NC(=O)c1ccc2c(c1)nc(C(F)(F)F)n2C(C)C` [Compound 204] was over 3 µg/mL; that for `CC(=O)Nc1cc(C(=O)Nc2sccc2C(=O)N(C)C)ccn1` [Compound 205] was over 3 µg/mL; that for `CCOCCOCCOC(=O)NC(=O)c1ccsc1NC(=O)c1nc2ccccc2s1` [Compound 206] was over 3 µg/mL.
Still for that read-out and setting: for `CCOC(=O)NC(=O)c1ccsc1NC(=O)c1ccc(C#N)cc1` [Compound 207] the value was over 3 µg/mL.
Take `CCOc1n[nH]c(-c2ccsc2NC(=O)c2nc3ccccc3s2)n1` [Compound 211]: the “LC50 (IV)” value in data set [2] is reported as “A (key: A: >50 μg/mL; B: 50-25 μg/mL; C: <25 μg/mL)”.
Same read-out and setting: the value for `N#Cc1ccccc1NC(=O)c1nc2ccccc2s1` [Compound 215] was “A (key: A: >50 μg/mL; B: 50-25 μg/mL; C: <25 μg/mL)”.
As for `CS(=O)(=O)N1CCN(C(=O)c2ccsc2NC(=O)c2nc3ccccc3s2)CC1` [Compound 229], the “LC50 (IV)” value in data set [2] is given as “A (key: A: >50 μg/mL; B: 50-25 μg/mL; C: <25 μg/mL)”.
With `COC(=O)CCCNC(=O)c1ccsc1NC(=O)c1nc2ccccc2s1` [Compound 237], the “LC50 (IV)” value in data set [2] was “B (key: A: >50 μg/mL; B: 50-25 μg/mL; C: <25 μg/mL)”.
With `CN1CCC(NC(=O)c2ccsc2NC(=O)c2nc3ccccc3s2)CC1` [Compound 255], the “MIC (I)” value in data set [1] is on record as “C (key: A: <1 μg/mL; B: 1-3 μg/mL; C: >3 μg/mL)”. Moreover, in data set [3], the “MIC (III)” value is listed as “C (key: A: <5 μg/mL; B: 5-25 μg/mL; C: >25 μg/mL)”. The “LC50 (IV)” value in data set [2] is recorded as “A (key: A: >50 μg/mL; B: 50-25 μg/mL; C: <25 μg/mL)”.

(Values after US20160194299A1 (priority 2013, published 2016).)
